In PubChem BioAssay (NCI):
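Five concentrations, 48 hours, 96-well plates. GI50 marks 50% less growth. TGI: concentration producing complete growth inhibition.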

Legend:
Assay in all cases: growth of human tumour cells (NCI), 48 h
MDA-MB-231 breast = test system: MDA-MB-231 breast
ACHN renal = test system: ACHN renal
RXF 393 renal = test system: RXF 393 renal
HS 578T breast = test system: HS 578T breast
NCI-H226 lung = test system: NCI-H226 lung
M14 melanoma = test system: M14 melanoma
SW-620 colon = test system: SW-620 colon
NCI-H460 lung = test system: NCI-H460 lung
IGROV1 ovarian = test system: IGROV1 ovarian
PC-3 prostate = test system: PC-3 prostate

Structure (SMILES)	GI50 (MDA-MB-231 breast) [µM]	TGI (MDA-MB-231 breast) [µM]	GI50 (ACHN renal) [µM]	TGI (ACHN renal) [µM]	GI50 (RXF 393 renal) [µM]	TGI (RXF 393 renal) [µM]	GI50 (HS 578T breast) [µM]	TGI (HS 578T breast) [µM]	GI50 (NCI-H226 lung) [µM]	TGI (NCI-H226 lung) [µM]	GI50 (M14 melanoma) [µM]	TGI (M14 melanoma) [µM]	GI50 (SW-620 colon) [µM]	TGI (SW-620 colon) [µM]	GI50 (NCI-H460 lung) [µM]	TGI (NCI-H460 lung) [µM]	GI50 (IGROV1 ovarian) [µM]	TGI (IGROV1 ovarian) [µM]	GI50 (PC-3 prostate) [µM]	TGI (PC-3 prostate) [µM]
Oc1ccc(O)c(-c2cn3ccsc3n2)c1	11.7	33.7	12.7	25.3	14.5	29.6	30.4	68.7	9.11	33.6	15.2	28.5	7.1	19.1	13.6	31.4	15.4	28.7	10.1	21.7
O=C1C(=O)c2c(nc3ccc(Br)cn23)-c2ccccc21	0.465	2.86	0.452	1.55	1.55	2.97	0.438	2.23	1.61	3.41	0.489	1.02	0.622	1.76	1.09	2.69	1.05	2.74	0.688	2.47
NC(=O)c1ccc(NN=O)nc1		> 100		> 100	> 100	> 100		> 100		> 100		> 100		> 100		> 100		> 100		> 100
N#Cc1ccccc1NC(=O)C(=O)c1c(O)c2ccccc2oc1=O		> 100		> 100		> 100		> 100		> 100		> 100		> 100		> 100		> 100		> 100
NC(N)=N/N=C/c1c(-c2cc(Cl)sc2Cl)nc2sccn12	0.751	1.75	0.703	1.41	3.52	13.7	0.89	2.77	7.89	18.9	> 50	> 50	1	2.43	1.43	4.4	1.14	8.08	1.55	6.15
COc1ccc2cc(-c3cc4c(oc3=O)-c3ccccc3OC4O)c(=O)oc2c1 (stereo unspecified)	17.9	36.1	16.1	30.1	18.7	36.4	20.8	45.1	16.1	34	22.1	43.8	15.9	29.7	16.7	34.7	16.9	34	14.7	28.3
Cl.Fc1c[c-]c(-c2ccccn2)c(F)c1.[Pt].c1ccc(P(c2ccccc2)C([PH+](c2ccccc2)c2ccccc2)[PH+](c2ccccc2)c2ccccc2)cc1	2.28	7.06	3.05	> 100	3.09	15.1	2.92	39	2.78	32.8	3.13	53	3.19	14.6	3.08	11.5	3.16	> 100	2.17	> 100
